Reference: patent US11793852B2, “Application of Longhu Rendan in preparing medicament for preventing and/or treating liver fibrosis” (Shanghai Zhonghua Pharmaceutical Co., Ltd, priority 2017, dated 2023)

Legend:
[1] = tested on: mice with liver fibrosis induced by CCl4; assay: Pathological indicators (HE, Sirius Red, α-SMA immunohistochemical staining of livers) in mice with liver fibrosis induced by CCl4; type: in vivo; settings: silybin 70 mg/kg/d, 6 weeks
Procedure: (§1) Experimental animals: SPF grade C57 mice, 8-week old, half male and half female, supplied by Guangdong Medical Lab Animal Center, housed in an animal room in a barrier environment (SPF grade), and feeds and water and libitum. Certificate [SCXK(YUE) 2013-0002].
(§2) Administration: 32 pills of Longhu Rendan were placed in a mortar and ground, dissolved in 20 mL of 0.5% CMC-Na, pipetted into a 50-mL centrifuge tube, vortexed to be completely dissolved, and made up to 32 mL (solution A). Six 5-ml EP tubes were charged with the solution A per 3 mL/tube (namely, daily dosage for a high-dose group). Another 50-mL tube was charged with 9 ml of the solution A, added with 9 mL 0.5% CMC-Na, and mixed uniformly; and six 5-ml EP tubes were charged with the solution per 3 mL/tube (namely, daily dosage for a medium-dose group). Another 50-mL centrifuge tube was charged with 4.5 ml of the solution A, added with the 0.5% CMC-Na solution to 18 mL, and mixed uniformly; and six 5-ml EP tubes were charged with the solution per 3 mL/tube (namely, daily dosage for a low-dose group). Continue for 6 weeks, 6×32 pills=192 pills in total, about 4 boxes.
Formulation of silybin: one 50-mL centrifuge tube was added with 10 to 12 mL of 0.5% CMC-Na, charged with 4 capsules, dissolved, made up to 20 mL with 0.5% CMC-Na, and mixed uniformly. Six 5-ml EP tubes were charged with the solution per 3 mL/tube (namely, daily dosage). Continue for 6 weeks, 6×4 capsules=24 capsules in total, about 2 boxes.
[…] healthy KM mice were randomly divided into 6 groups with 8 mice/group. Namely: a blank control group, a CCl4 model group, a silybin positive control group, and low, medium, and high dose groups of Longhu Rendan. All groups received a normal diet. […]
HE staining, Sirius Red staining, and smooth muscle actin protein α-SMA immunohistochemical staining. Positive staining areas of Sirius Red staining and immunohistochemical staining were calculated by the ImageJ software, data was processed and plotted by GraphPadPrism, and t-test analysis was performed, where P<0.05 was considered statistically significant.

[2] = tested on: mice with liver fibrosis induced by CCl4; assay: Serological indicators (serum AST and ALT activity) in mice with liver fibrosis induced by CCl4; type: in vivo; settings: silybin 70 mg/kg/d, gastric perfusion, 6 weeks; compared to the CCl4 group, P<0.05
Procedure: as §1
as §2, with “boxes. […]” for “boxes.”
After fasting for 12 h, the eyeballs were removed and blood was taken and serum was separated. ALT and AST activities were determined by alanine aminotransferase (ALT) and aspartate aminotransferase (AST) kits.

COc1cc(C2Oc3cc([C@H]4Oc5cc(O)cc(O)c5C(=O)[C@@H]4O)ccc3OC2CO)ccc1O (stereo partly shown) [silybin]
degree of fibrosis (Sirius Red staining of mouse livers) [1]: significantly improve the degree of fibrosis
degree of fibrosis (α-SMA immunohistochemical staining of mouse livers) [1]: significantly improve the degree of fibrosis
inflammatory infiltration and liver injury (HE staining of mouse livers) ([1]; compared to the CCl4 model group): improved at different degrees
serum AST activity [2]: significantly reduced
